Measured values as given in ChEMBL document CHEMBL1201862, “PubChem BioAssay data set” (2004).
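Assay format: 96-well plates, 48-hour exposure. Abbreviation: GI50, concentration required for 50% inhibition of growth.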 Active and inactive are the calls of the source. Rule as the data show it: active = GI50 up to about 1.1 µM and inactive = higher.

Assays:
Assay in all cases: growth of human tumour cells (NCI), 48 h
786-0 = system: 786-0
A498 = system: A498
A549 = system: A549
ACHN = system: ACHN
BT-549 = system: BT-549
CAKI-1 = system: CAKI-1
CCRF-CEM = system: CCRF-CEM
COLO 205 = system: COLO 205
DLD-1 = system: DLD-1
DMS-114 = system: DMS-114
DMS-273 = system: DMS-273
DU-145 = system: DU-145
EKVX = system: EKVX
HCC 2998 = system: HCC 2998
HCT-116 = system: HCT-116
HCT-15 = system: HCT-15
HL-60 = system: HL-60
HOP-18 = system: HOP-18
HOP-62 = system: HOP-62
HOP-92 = system: HOP-92
HT-29 = system: HT-29
Hs-578T = system: Hs-578T
IGROV-1 = system: IGROV-1
K562 = system: K562
KM-20L2 = system: KM-20L2
KM12 = system: KM12
LOX IMVI = system: LOX IMVI
LXFL 529 = system: LXFL 529
M14 = system: M14
M19-MEL = system: M19-MEL
MCF7 = system: MCF7
MDA-MB-231 = system: MDA-MB-231
MDA-MB-435 = system: MDA-MB-435
MOLT-4 = system: MOLT-4
Malme-3M = system: Malme-3M
NCI-H226 = system: NCI-H226
NCI-H23 = system: NCI-H23
NCI-H460 = system: NCI-H460
NCI-H522 = system: NCI-H522
NCI/ADR-RES = system: NCI/ADR-RES
OVCAR-3 = system: OVCAR-3
OVCAR-4 = system: OVCAR-4
OVCAR-5 = system: OVCAR-5
OVCAR-8 = system: OVCAR-8
PC-3 = system: PC-3
RPMI-8226 = system: RPMI-8226
RXF 393 = system: RXF 393
SF-268 = system: SF-268
SF-295 = system: SF-295
SF-539 = system: SF-539
SK-MEL-28 = system: SK-MEL-28
SK-MEL-2 = system: SK-MEL-2
SK-MEL-5 = system: SK-MEL-5
SK-OV-3 = system: SK-OV-3
SN12C = system: SN12C
SNB-19 = system: SNB-19
SNB-75 = system: SNB-75
SR = system: SR
SW-620 = system: SW-620
T47D = system: T47D
TK-10 = system: TK-10
U-251 = system: U-251
UACC-257 = system: UACC-257
UACC-62 = system: UACC-62
UO-31 = system: UO-31
XF498 = system: XF498

With CC[N+]1(C)CCC(O)(c2ccccc2)C(C(=O)c2ccccc2)C1 (stereo unspecified) the GI50 (786-0) was 5.89 µM (inactive), the GI50 (A498) was 16.1 µM (inactive) and the GI50 (A549) was 16 µM (inactive). For the same compound, the GI50 (ACHN) was 10.1 µM (inactive), the GI50 (BT-549) was 9.02 µM (inactive) and the GI50 (CAKI-1) was 4.14 µM (inactive). The GI50 (CCRF-CEM) was 2.04 µM (inactive), the GI50 (COLO 205) was 9.38 µM (inactive) and the GI50 (DLD-1) was 7.93 µM (inactive). For the same compound, the GI50 (DMS-114) was 20.2 µM (inactive), the GI50 (DMS-273) was 21.4 µM (inactive) and the GI50 (DU-145) was 22.1 µM (inactive). For the same compound, the GI50 (EKVX) was 21.1 µM (inactive), the GI50 (HCC 2998) was 34 µM (inactive) and the GI50 (HCT-116) was 13.6 µM (inactive). The GI50 (HCT-15) was 9.73 µM, the GI50 (HL-60) was 4.27 µM (inactive) and the GI50 (HOP-18) was 13.7 µM (inactive). For the same compound, the GI50 (HOP-62) was 22 µM (inactive), the GI50 (HOP-92) was 8.3 µM (inactive) and the GI50 (HT-29) was 12.5 µM (inactive). The GI50 (Hs-578T) was 24 µM (inactive), the GI50 (IGROV-1) was 19.8 µM (inactive) and the GI50 (K562) was 2.11 µM (inactive). The GI50 (KM-20L2) was 19.5 µM (inactive), the GI50 (KM12) was 19.2 µM (inactive) and the GI50 (LOX IMVI) was 15.4 µM (inactive). For the same compound, the GI50 (LXFL 529) was 10 µM (inactive), the GI50 (M14) was 9.71 µM (inactive) and the GI50 (M19-MEL) was 18.4 µM (inactive). The GI50 (MCF7) was 2.73 µM (inactive), the GI50 (MDA-MB-231) was 17.2 µM (inactive) and the GI50 (MDA-MB-435) was 17.9 µM (inactive). The GI50 (MOLT-4) was 3.04 µM (inactive), the GI50 (Malme-3M) was 16.7 µM (inactive) and the GI50 (NCI-H226) was 18.6 µM (inactive). The GI50 (NCI-H23) was 20.8 µM (inactive), the GI50 (NCI-H460) was 21.7 µM (inactive) and the GI50 (NCI-H522) was 1.75 µM (inactive). The GI50 (NCI/ADR-RES) was 29.6 µM (inactive), the GI50 (OVCAR-3) was 19.3 µM (inactive) and the GI50 (OVCAR-4) was 11.8 µM (inactive). For the same compound, the GI50 (OVCAR-5) was 17.9 µM (inactive), the GI50 (OVCAR-8) was 25.8 µM (inactive) and the GI50 (PC-3) was 17.9 µM (inactive). For the same compound, the GI50 (RPMI-8226) was 2 µM (inactive), the GI50 (RXF 393) was 12.4 µM (inactive) and the GI50 (SF-268) was 23.6 µM (inactive). The GI50 (SF-295) was 19 µM (inactive), the GI50 (SF-539) was 16.7 µM (inactive) and the GI50 (SK-MEL-28) was 15.2 µM (inactive). For the same compound, the GI50 (SK-MEL-2) was 18.7 µM (inactive), the GI50 (SK-MEL-5) was 18.6 µM (inactive) and the GI50 (SK-OV-3) was 17.3 µM (inactive). The GI50 (SN12C) was 11.6 µM (inactive), the GI50 (SNB-19) was 15.5 µM (inactive) and the GI50 (SNB-75) was 12.6 µM (inactive). For the same compound, the GI50 (SR) was 5.43 µM (inactive), the GI50 (SW-620) was 2.12 µM (inactive) and the GI50 (T47D) was 16.9 µM (inactive). For the same compound, the GI50 (TK-10) was 15.7 µM (inactive), the GI50 (U-251) was 20.6 µM (inactive) and the GI50 (UACC-257) was 17.5 µM (inactive). The GI50 (UACC-62) was 19 µM (inactive) and the GI50 (UO-31) was 18.7 µM (inactive).
In the case of CC(=O)Nc1ccc(S(=O)(=O)Nc2cnc3ccccc3n2)cc1, the GI50 (786-0) is reported as > 100 µM (inactive), the GI50 (A498) is reported as > 100 µM (inactive) and the GI50 (A549) is reported as > 100 µM (inactive). The GI50 (ACHN) was > 100 µM (inactive), the GI50 (CAKI-1) was > 100 µM (inactive) and the GI50 (CCRF-CEM) was > 100 µM (inactive). For the same compound, the GI50 (COLO 205) was > 100 µM (inactive), the GI50 (DLD-1) was > 100 µM (inactive) and the GI50 (DMS-114) was > 100 µM (inactive). The GI50 (DMS-273) was > 100 µM (inactive), the GI50 (EKVX) was > 100 µM (inactive) and the GI50 (HCC 2998) was > 100 µM (inactive). The GI50 (HCT-15) was greater than 100 µM, the GI50 (HL-60) was > 100 µM (inactive) and the GI50 (HOP-18) was > 100 µM (inactive). The GI50 (HOP-62) was > 100 µM (inactive), the GI50 (HOP-92) was > 100 µM (inactive) and the GI50 (HT-29) was > 100 µM (inactive). The GI50 (IGROV-1) was > 100 µM (inactive), the GI50 (K562) was > 100 µM (inactive) and the GI50 (KM-20L2) was > 100 µM (inactive). The GI50 (KM12) was > 100 µM (inactive), the GI50 (LOX IMVI) was > 100 µM (inactive) and the GI50 (LXFL 529) was > 100 µM (inactive). For the same compound, the GI50 (M14) was > 100 µM (inactive), the GI50 (M19-MEL) was > 100 µM (inactive) and the GI50 (MOLT-4) was > 100 µM (inactive). For the same compound, the GI50 (Malme-3M) was > 100 µM (inactive), the GI50 (NCI-H226) was > 100 µM (inactive) and the GI50 (NCI-H23) was > 100 µM (inactive). For the same compound, the GI50 (NCI-H460) was > 100 µM (inactive), the GI50 (NCI-H522) was > 100 µM (inactive) and the GI50 (OVCAR-3) was > 100 µM (inactive). For the same compound, the GI50 (OVCAR-4) was > 100 µM (inactive), the GI50 (OVCAR-5) was > 100 µM (inactive) and the GI50 (OVCAR-8) was > 100 µM (inactive). The GI50 (RPMI-8226) was > 100 µM (inactive), the GI50 (RXF 393) was > 100 µM (inactive) and the GI50 (SF-268) was > 100 µM (inactive). The GI50 (SF-295) was > 100 µM (inactive), the GI50 (SF-539) was > 100 µM (inactive) and the GI50 (SK-MEL-28) was > 100 µM (inactive). The GI50 (SK-MEL-2) was > 100 µM (inactive), the GI50 (SK-MEL-5) was > 100 µM (inactive) and the GI50 (SK-OV-3) was > 100 µM (inactive). The GI50 (SN12C) was > 100 µM (inactive), the GI50 (SNB-19) was > 100 µM (inactive) and the GI50 (SNB-75) was 63.5 µM (inactive). For the same compound, the GI50 (SR) was > 100 µM (inactive), the GI50 (SW-620) was > 100 µM (inactive) and the GI50 (TK-10) was > 100 µM (inactive). For the same compound, the GI50 (U-251) was > 100 µM (inactive), the GI50 (UACC-257) was > 100 µM (inactive) and the GI50 (UACC-62) was > 100 µM (inactive). The GI50 (UO-31) was > 100 µM (inactive) and the GI50 (XF498) was > 100 µM (inactive).
